Results from PubChem BioAssay (NCI).
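In this assay, cells in 96-well plates receive the compound at five concentrations for 48 hours. Endpoints are linearly interpolated between the surrounding concentrations. Here, GI50 denotes the concentration required for 50% inhibition of growth. TGI is the concentration that stops growth completely.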

Columns and labels:
Assay in all cases: inhibition of tumour cell growth, NCI panel, 48 h
[1] = test system: SNB-75 CNS
[2] = test system: KM12 colon
[3] = test system: HCT-116 colon
[4] = test system: SR leukemia
[5] = test system: SF-295 CNS
[6] = test system: M14 melanoma
[7] = test system: HCC-2998 colon
[8] = test system: SK-MEL-2 melanoma
[9] = test system: NCI-H522 lung
[10] = test system: UACC-62 melanoma

For COc1ccc(C2CC(c3cccc(Nc4ccncc4)c3)=NN2c2ccccc2)cc1 (stereo not given), the GI50 [1] was 1.55 µM, the TGI [1] was 5.23 µM and the GI50 [2] was 1.79 µM. The TGI [2] was 3.5 µM, the GI50 [3] was 1.68 µM and the TGI [3] was 3.29 µM. The GI50 [4] was 2 µM, the TGI [4] was 5.59 µM and the GI50 [5] was 1.8 µM. It also gave a TGI [5] of 3.32 µM, a GI50 [6] of 1.87 µM and a TGI [6] of 3.74 µM. The GI50 [7] was 1.61 µM, the TGI [7] was 3.01 µM and the GI50 [8] was 2.39 µM. The TGI [8] was 5.01 µM, the GI50 [9] was 1.81 µM and the TGI [9] was 3.81 µM. It also gave a GI50 [10] of 1.74 µM and a TGI [10] of 3.21 µM.
For O=[N+]([O-])C(/C=C(\Cl)[N+](=O)[O-])=C(Nc1ccccc1)Nc1ccccc1, the TGI [1] was 14.1 µM, the TGI [2] was 24.3 µM and the TGI [3] was 4.36 µM. It also gave a TGI [4] of 6.02 µM, a TGI [5] of 31.6 µM and a TGI [6] of 22.9 µM. For the same compound, the TGI [7] was 37.2 µM, the TGI [8] was 35.8 µM and the TGI [9] was 4.55 µM. The TGI [10] was 21.3 µM.
For CC(C)(C)[C@H]1NC(=O)CN1C(=O)OCc1ccccc1, the TGI [1] was > 100 µM, the TGI [2] was > 100 µM and the TGI [3] was > 100 µM. The TGI [4] was > 100 µM, the TGI [5] was > 100 µM and the TGI [6] was > 100 µM. For the same compound, the TGI [7] was > 100 µM, the TGI [8] was > 100 µM and the TGI [9] was > 100 µM. For the same compound, the TGI [10] was > 100 µM.
For N#Cc1cc2c(n(C3OC(CO)C(O)C(O)C3O)c1=S)CCC2 (stereo not given), the TGI [1] was > 100 µM, the TGI [2] was > 100 µM and the TGI [3] was > 100 µM. For the same compound, the TGI [4] was > 100 µM, the TGI [5] was > 100 µM and the TGI [6] was > 100 µM. The TGI [7] was > 100 µM, the TGI [8] was > 100 µM and the TGI [9] was > 100 µM. The TGI [10] was > 100 µM.
In the case of CC(C)C(Nc1c2ccccc2[n+](C)c2ccccc12)C(=O)O (stereo not given), the TGI [1] was > 100 µM, the TGI [2] was > 100 µM and the TGI [3] was > 100 µM. The TGI [4] was > 100 µM, the TGI [5] was > 100 µM and the TGI [6] was > 100 µM. The TGI [7] was > 100 µM, the TGI [8] was > 100 µM and the TGI [9] was > 100 µM. For the same compound, the TGI [10] was > 100 µM.
For COc1cc2ccc(C(C)NCC#N)cc2cc1OC (stereo not given), the TGI [1] was > 100 µM, the TGI [2] was > 100 µM and the TGI [3] was > 100 µM. For the same compound, the TGI [4] was > 100 µM, the TGI [5] was > 100 µM and the TGI [6] was > 100 µM. The TGI [7] was > 100 µM, the TGI [8] was > 100 µM and the TGI [9] was > 100 µM. The TGI [10] was > 100 µM.
CC[P+](c1ccccc1)(N(C)C)N(C)C was tested, and the TGI [1] was > 100 µM, the TGI [2] was > 100 µM and the TGI [3] was > 100 µM. The TGI [4] was > 100 µM, the TGI [5] was > 100 µM and the TGI [6] was > 100 µM. For the same compound, the TGI [7] was > 100 µM, the TGI [8] was > 100 µM and the TGI [9] was > 100 µM. The TGI [10] was > 100 µM.
Cc1cc(S(=O)(=O)NC2=NCc3c(F)cccc3N2)c(S)cc1Cl was tested, and the TGI [1] was > 100 µM, the TGI [2] was > 100 µM and the TGI [3] was > 100 µM. The TGI [4] was > 100 µM, the TGI [5] was > 100 µM and the TGI [6] was > 100 µM. For the same compound, the TGI [7] was > 100 µM, the TGI [8] was > 100 µM and the TGI [9] was > 100 µM. For the same compound, the TGI [10] was > 100 µM.
With Nc1ccc2c3c1cccc3c(=O)n1c3ccc(Cc4ccc5c(c4)nc4c6ccc(N)c7cccc(c(=O)n54)c76)cc3nc21 the TGI [1] was > 100 µM, the TGI [2] was > 100 µM and the TGI [3] was > 100 µM. For the same compound, the TGI [4] was > 100 µM, the TGI [5] was > 100 µM and the TGI [6] was > 100 µM. For the same compound, the TGI [7] was > 100 µM, the TGI [8] was > 100 µM and the TGI [9] was > 100 µM. For the same compound, the TGI [10] was > 100 µM.
For Cc1cc(C)nc(NS(=O)(=O)c2ccc(NC(=O)c3ccc4nc5ccccc5c(Nc5ccc(S(=O)(=O)N=C(N)N)cc5)c4c3)cc2)n1, the TGI [1] was > 100 µM, the TGI [2] was > 100 µM and the TGI [3] was > 100 µM. For the same compound, the TGI [4] was > 100 µM, the TGI [5] was > 100 µM and the TGI [6] was > 100 µM. For the same compound, the TGI [7] was > 100 µM, the TGI [8] was > 100 µM and the TGI [9] was > 100 µM. The TGI [10] was > 100 µM.
For CCOC(=O)C(NC(=O)c1ccccc1)(Nc1ccc(S(=O)(=O)Nc2cc(C)on2)cc1)C(F)(F)F (stereo not given), the TGI [1] was > 100 µM, the TGI [2] was > 100 µM and the TGI [3] was > 100 µM. For the same compound, the TGI [4] was > 100 µM, the TGI [5] was > 100 µM and the TGI [6] was > 100 µM. For the same compound, the TGI [7] was > 100 µM, the TGI [8] was > 100 µM and the TGI [9] was > 100 µM. For the same compound, the TGI [10] was > 100 µM.
In the case of CC(C)(C)C(=O)C(N)C(=O)C(C)(C)C, the TGI [1] was > 100 µM, the TGI [2] was > 100 µM and the TGI [3] was > 100 µM. For the same compound, the TGI [4] was > 100 µM, the TGI [5] was > 100 µM and the TGI [6] was > 100 µM. For the same compound, the TGI [7] was > 100 µM, the TGI [8] was > 100 µM and the TGI [9] was > 100 µM. The TGI [10] was > 100 µM.
With COc1cc2c(cc1OC)C(C1CC1)ON(C)CC2 (stereo not given) the TGI [1] was > 100 µM, the TGI [2] was > 100 µM and the TGI [3] was > 100 µM. For the same compound, the TGI [4] was > 100 µM, the TGI [5] was > 100 µM and the TGI [6] was > 100 µM. The TGI [7] was > 100 µM, the TGI [8] was > 100 µM and the TGI [9] was > 100 µM. For the same compound, the TGI [10] was > 100 µM.
With CCOc1ccc(Nc2nc(N)nc(N)c2N=O)cc1 the TGI [1] was 91.7 µM, the TGI [2] was > 100 µM and the TGI [3] was > 100 µM. The TGI [4] was > 100 µM, the TGI [5] was > 100 µM and the TGI [6] was > 100 µM. For the same compound, the TGI [7] was > 100 µM, the TGI [8] was > 100 µM and the TGI [9] was > 100 µM. For the same compound, the TGI [10] was > 100 µM.
With CC1=NN(C(=O)CC(=O)Nc2cccc(C)c2)C(=O)C1N=Nc1ccc(C(=O)O)cc1 (stereo not given) the TGI [1] was > 100 µM, the TGI [2] was > 100 µM and the TGI [3] was > 100 µM. The TGI [4] was > 100 µM, the TGI [5] was > 100 µM and the TGI [6] was > 100 µM. For the same compound, the TGI [7] was > 100 µM, the TGI [8] was > 100 µM and the TGI [9] was > 100 µM. The TGI [10] was > 100 µM.
For O=C(CCCCCCCCC(=O)N1C(=O)CC(=O)N(c2ccc(Cl)cc2)C1=S)N1C(=O)CC(=O)N(c2ccc(Cl)cc2)C1=S, the TGI [1] was > 100 µM, the TGI [2] was > 100 µM and the TGI [3] was > 100 µM. The TGI [4] was 83.7 µM, the TGI [5] was > 100 µM and the TGI [6] was > 100 µM. The TGI [7] was > 100 µM, the TGI [8] was > 100 µM and the TGI [9] was > 100 µM. For the same compound, the TGI [10] was > 100 µM.
